From patent US20030181401A1, “Insulin secretion promoter” (KYOWA HAKKO KOGYO CO., LTD., priority 2002, published 2003)

Tests used:
Assay type in all cases: in vivo
ICR mice [1] = assay: Test Example 6: serum insulin after intravenous saccharide with simultaneous oral glucose loading
Protocol: (§1) Groups of male 9-week-old ICR mice (Japan SLC, Inc.) each consisting of 7 mice were fed CE-2 (Clea Japan, Inc.) for one week, so as to accustom the animals to the environment. Then, the mice were fasted for 18 hours.
(§2) An aqueous 10% solution of 2′-FL or NeuAc was intravenously administered to the mice to 500 mg (saccharide)/kg body weight, while an aqueous 40% glucose solution was orally administered simultaneously to 2 g (glucose)/kg body weight, to the mice. To the control group, physiological saline was administered intravenously, while glucose was orally administered simultaneously to 2 g/kg body weight. Zero minute and 30 minutes after glucose loading, blood was taken from a tail vein. […] Blood was centrifuged (4° C., 10000 rpm, 10 minutes), to obtain serum.
(§3) Insulin in the serum recovered was assayed by enzyme immunoassay using Lebis Insulin kit (for mice-T) (Shibayagi, Co., Ltd.) in the same manner as in the Test Example 2.

ICR mice [2] = assay: Test Example 6: serum glucose after intravenous saccharide with simultaneous oral glucose loading
Protocol: as §1, §2
Furthermore, the glucose concentration in the serum recovered was also assayed. The glucose concentration was assayed, using Glucose CII-TEST WAKO (WAKO Pure Chemical Industries, Ltd.). 2 μl of the recovered serum was placed in a 96-well plate, followed by addition of 200 μl of the chromogenic solution attached to the kit, for incubation at 37° C. for 10 minutes. After incubation, the absorbance at 490 nm was assayed with a plate reader. Herein, a standard curve was prepared by using aqueous 500 mg/dl glucose solution as the standard solution to dilute the standard solution appropriately for the same reaction as for the serum, and plotting the relation between the concentration and the absorbance (490 nm). Based on the prepared standard curve and the absorbance from the reaction with the serum, the glucose concentration in the serum was determined.

ICR mice [3] = assay: Test Example 2: serum insulin in glucose tolerance test after 7-day oral dosing, normal mice
Protocol: Eleven male 9-week-old ICR mice as normal mice (SLC, Inc.) were fed a commercially available CE-2 (Clea Japan, Inc.) for one week, so as to accustom the mice to the environment.
After acclimation, an aqueous 10% solution of 2′-fucosyllactose was orally administered to the mice at 200 mg (2′-FL)/kg body weight in the morning and at 300 mg (2′-FL)/kg body weight in the evening. The same volume of saline was administered to the control group. The aqueous 2′-FL solution and saline were both dosed daily to the mice for 7 days.
During the dosing period, CE-2 was given together with drinking water ad libitum. […]
After the reaction, the plate was rinsed four times with the rinse solution. […] The absorbance of the reaction solution in the wells at 450 nm was read with a plate reader. Herein, a standard curve was prepared by using the standard insulin solution (mice, 200 ng/ml) attached to the kit as a standard solution to dilute the standard solution appropriately with the buffer solution attached to the kit for the same reaction as for the serum, and plotting the relation between the concentration and the absorbance (450 nm). Based on the prepared standard curve and the absorbance from the reaction with the serum, the insulin concentration in the serum was determined.

ICR mice [4] = assay: Test Example 7: serum insulin after intravenous 2′-FL dosing without glucose loading
Protocol: Groups of male 9-week-old ICR mice (Japan SLC, Inc.) each consisting of 7 mice were fed a commercially available CE-2 (Clea Japan, Inc.) for one week, so as to accustom the mice to the environment. Thereafter, an aqueous 1% solution of 2′-FL was intravenously administered to the mice to 50 mg (2′-FL)/kg body weight. The same volume of saline was administered to the control group. Zero minute and 30 minutes after dosing, blood was taken from a tail vein. […] Blood was centrifuged (4° C., 10000 rpm, 10 minutes), to obtain serum.
as §3

[5] = ICR mice fasted 18 hours, 500 mg/kg intravenous with simultaneous glucose 2 g/kg oral, 30 minutes, mean ± SD
[6] = ICR mice fasted 18 hours, 500 mg/kg intravenous with simultaneous glucose 2 g/kg oral, 120 minutes, mean ± SD

2′-fucosyllactose [2′-FL]
Serum insulin concentration after glucose loading, 30 minutes (ICR mice [1]; [5]): 192.3 ± 57.4 pg/mL
Serum insulin concentration after glucose loading, 120 minutes (ICR mice [1]; [6]): 2090.7 ± 533.1 pg/mL
serum insulin concentration after glucose loading compared with the control group (in words) (ICR mice [1]; ICR mice, intravenous dosing): increased
Serum glucose concentration after glucose loading, 30 minutes (ICR mice [2]; [5]): 331.4 ± 68.6 mg/dL
Serum glucose concentration after glucose loading, 120 minutes (ICR mice [2]; [6]): 169.2 ± 29.5 mg/dL
Serum glucose concentration after glucose loading, Zero minute (ICR mice [2]; ICR mice fasted 18 hours, 500 mg/kg intravenous with simultaneous glucose 2 g/kg oral, zero minute, mean ± SD): 102.4 ± 23.3 mg/dL
increase of the serum glucose concentration compared with the control group (in words) (ICR mice [2]; ICR mice, intravenous dosing): suppressed
insulin concentration 120 minutes after glucose loading compared with the control group (in words) (ICR mice [3]; continuous daily oral dosing): increased
Serum insulin concentration after glucose loading, 120 minutes (ICR mice [3]; oral 200 + 300 mg/kg daily, 7 days, glucose 2 g/kg oral, 120 minutes, mean ± SD): 0.35 ± 0.24 ng/mL
Serum insulin concentration after 2′-FL dosing, 30 minutes (ICR mice [4]; 50 mg/kg intravenous, no glucose loading, 30 minutes after dosing, mean ± SD): 168.6 ± 40.2 pg/mL
Serum insulin concentration after 2′-FL dosing, 120 minutes (ICR mice [4]; 50 mg/kg intravenous, no glucose loading, 120 minutes after dosing, mean ± SD): 2035.9 ± 1098.0 pg/mL
serum insulin concentration compared with the control group (in words) (ICR mice [4]; intravenous 2′-FL dosing): increased
